Experimental data from patent EP0567613B1, “COMPOSITIONS FOR THERAPY AND PREVENTION OF CANCER” (The Government of the United States of America, as …, priority 1991, dated 1993).

Key:
[1] = test system: Leukemia K562; assay: Tumor cell growth / proliferation; settings: K562 cell line
[2] = test system: premalignant 10T1/2 cells; assay: cells; settings: for Differentiation at 1 mM: sodium salts; for DC50: Mus musculus, Adipocyte, read-out: DC50, concentration of compound causing 50% differentiation; for adipocyte conversion: glutamine antagonists
Method: C. Quantitation of adipocytosis. Lipids stained with Oil-Red O were extracted with butanol, and the optical density at 510 nm determined.
Lower: Quantitation of adipocytosis. Cells were fixed with 37% formaldehyde and stained with Oil-Red O. The stained intracellular lipid was extracted with butanol, and the optical density was determined using a Titertek Multiskan MC, manufactured by Flow Laboratories, at a wavelength 510 nm.

[3] = test system: 4C8a10 cells (revertants of Haras-transformed NIH3T3 fibroblasts); assay: Tumor formation of cells pretreated in culture and injected s.c. into athymic nude mice; format: in vivo; settings: cells pretreated with 5-AzadC 0.1 µM, after 3 weeks
Description: One-two weeks later the cells were transplanted subcutaneously into athymic mice.
(§1) The experimental model involved nonmalignant 4C8a10 cells (revertants of Haras-transformed NIH3T3 fibroblasts). […]
Frederick Cancer Research Facility).

[4] = test system: 4C8a10 cells; assay: Malignant phenotype in culture / growth on matrigel; format: cell-based
Method: as §1
^b Cells were plated on top of matrigel (reconstituted basement membrane) and observed for malignant growth pattern, i.e., active replication, development of characteristic processes, and invasion.

[5] = test system: 10T1/2 cells; assay: Neoplastic foci formation in culture
Description: […] The cells were then subcultured in the absence of the nucleoside analog for an additional seven weeks. […] For the tumorigenicity assay, 4-5 week-old female athymic nude mice were inoculated s.c. with 1 x 10^6 cells and observed for tumor growth at the site of injection.

[6] = test system: C3H 10T1/2 Cells; assay: Tumorigenicity of treated cells in athymic mice; settings: time 8 weeks
Method: Premalignant cells (3-4 x 10^5) were plated in 75 cm^2 dishes and 5-AzadC 0.1 µM was added to the growth medium at 20 and 48 hrs after plating. The cells were then subcultured in the absence of the nucleoside analog for an additional seven weeks. […] For the tumorigenicity assay, 4-5 week-old female athymic nude mice were inoculated s.c. with 1 x 10^6 cells and observed for tumor growth at the site of injection.

[7] = test system: HL-60; assay: Granulocyte differentiation (NBT reduction, morphology) and viability by trypan blue exclusion; settings: Homo sapiens, HL-60, read-out: Cell viability
Method: The number of NBT positive cells was determined after 4 [solid bars] or 7 days [hatched bar] of treatment. […] Glutamine Starvation (Gln, < 0.06 mM) was as described (18).
The ability of cells to reduce nitroblue tetrazolium (NBT) is indicative of oxidase activity which is characteristic of the more mature forms of human bone marrow granulocytes. NBT reduction thus serves as an indicator of granulocyte differentiation. […] Glutamine starvation (Gln, < 0.06 mM) was as described. […] DON, ACV and HPA are glutamine antagonists.

[8] = test system: Erythroleukemia K562 cells; assay: Induction of hemoglobin synthesis (benzidine staining, protein quantitation); settings: HU 100 µM, seven days
[9] = test system: Prostate Adenocarcinoma PC3; assay: Tumor cell growth / proliferation; format: cell-based; settings: Homo sapiens, PC-3
Method: Studies of depth were performed with two androgenindependent human prostate adenocarcinoma cell lines, PC3 and DU145, established from bone and brain metastases, respectively.

[10] = test system: Malignant Melanoma A375; assay: Tumor cell growth / proliferation

O=C(O)Cc1cc(O)cc(O)c1
toxicity [1]: highly toxic

O=C(O)Cc1cccc2ccccc12 [1-naphthylacetate]
Differentiation at 1 mM [2]: >95%
DC50 [2]: < 100 µM

O=C(O)Cc1ccc(O)cc1O [2,4-dihydroxyphenylacetate]
toxicity [1]: highly toxic

O=C(O)Cc1c(Cl)cccc1Cl [2,6-dichlorophenylacetate]
Differentiation at 1 mM [2]: 75%
DC50 [2]: 500 µM

O=C(O)Cc1cccc(Cl)c1 [3-chlorophenylacetate]
Differentiation at 1 mM [2]: 80%
DC50 [2]: 500 µM

O=C(O)Cc1ccc(Cl)cc1 [4-chlorophenylacetate]
Differentiation at 1 mM [2]: 50%
DC50 [2]: 1000 µM

O=C(O)Cc1ccc(F)cc1 [4-fluorophenylaceatae]
Differentiation at 1 mM [2]: 65%
DC50 [2]: 700 µM

Nc1ncn([C@H]2C[C@H](O)[C@@H](CO)O2)c(=O)n1 [5-AzadC, 5-aza-2'-deoxycytidine, reference compound]
Tumor Formation Incidence ([3]; 5x10^5 cells per site s.c.): 8/8
Tumor Formation Size, mean (range) [3]: 11.5 (4-19) mm
Growth on matrigel ([4]; 5-AzadC 0.1 µM): +
time until malignant conversion evident ([4]; transient treatment of premalignant cells): ≤ 2 days
frequency of foci of neoplastically transformed cells [5]: about 7x10^-4
Tumors Incidence ([6]; 5-AzadC 0.1 µM at 20 and 48 hrs after plating, 1 x 10^6 cells s.c.): 8/8
Tumors Diameter ([6]; 5-AzadC 0.1 µM): 5.5 ± 2.5 mm ± S.D.

N[C@H](C(=O)O)[C@@H]1CC(Cl)=NO1 [ACV, acivicin]
adipocyte conversion [2]: neither glutamine starvation nor by treatment with glutamine antagonists such as DON and ACV resulted in adipocyte conversion
viability at 1 µg/mL [7]: 63%
viability at 3 µg/mL [7]: 63%

[N-]=[N+]=CC(=O)CC[C@H](N)C(=O)O [DON, 6-diazo-5-oxo-L-norleucine]
adipocyte conversion [2]: neither glutamine starvation nor by treatment with glutamine antagonists such as DON and ACV resulted in adipocyte conversion
viability at 25 µg/mL [7]: 75%
viability at 30 µg/mL [7]: 75%

NC(=O)NO [HU, hydroxyurea, reference compound]
Benzidine Positive Cells [8]: 17.2%

Cc1ccc(C(=O)Nc2ccc(S(=O)(=O)O)c3cc(S(=O)(=O)O)cc(S(=O)(=O)O)c23)cc1NC(=O)c1cccc(NC(=O)Nc2cccc(C(=O)Nc3cc(C(=O)Nc4ccc(S(=O)(=O)O)c5cc(S(=O)(=O)O)cc(S(=O)(=O)O)c45)ccc3C)c2)c1 [Suramin, suramin]
activity at 75 µg/mL ([9]; Suramin 75 µg/ml): 58.5%
activity at 150 µg/mL ([9]; Suramin 150 µg/ml): 46.5%
activity at 300 µg/mL ([9]; Suramin 300 µg/ml): 31%
Growth ([10]; Suramin 38 µg/ml): 78.3 % of control
Viability ([10]; Suramin 38 µg/ml): > 95%
Growth ([10]; Suramin 75 µg/ml): 56.8 % of control
Viability ([10]; Suramin 75 µg/ml): > 95%
Growth ([10]; Suramin 150 µg/ml): 38.6 % of control
Viability ([10]; Suramin 150 µg/ml): 92%
Growth ([10]; Suramin 300 µg/ml): 26.6 % of control
Viability ([10]; Suramin 300 µg/ml): 82%
